Measured values reported in patent publication US5665745A, “Heterocyclic compounds and their preparation and use” (Eli Lilly and Company, priority 1995, dated 1997).
Where two headings read alike, the source gives them in different places.

Assays:
[1] = molecular target: T1, muscarinic receptors (M1 -site, pirenzepine sensitive site) (Rattus norvegicus, UniProt P08482); assay: inhibition of ^3 HPRZ (pirenzepine, [N-methyl-^3 H]) binding to rat cerebral cortex membranes; design: species or system rat (male Wistar
T1 construct: from tissue; host or cells: cerebral cortex membranes of male Wistar rats
T1 sequence (P08482 1-460): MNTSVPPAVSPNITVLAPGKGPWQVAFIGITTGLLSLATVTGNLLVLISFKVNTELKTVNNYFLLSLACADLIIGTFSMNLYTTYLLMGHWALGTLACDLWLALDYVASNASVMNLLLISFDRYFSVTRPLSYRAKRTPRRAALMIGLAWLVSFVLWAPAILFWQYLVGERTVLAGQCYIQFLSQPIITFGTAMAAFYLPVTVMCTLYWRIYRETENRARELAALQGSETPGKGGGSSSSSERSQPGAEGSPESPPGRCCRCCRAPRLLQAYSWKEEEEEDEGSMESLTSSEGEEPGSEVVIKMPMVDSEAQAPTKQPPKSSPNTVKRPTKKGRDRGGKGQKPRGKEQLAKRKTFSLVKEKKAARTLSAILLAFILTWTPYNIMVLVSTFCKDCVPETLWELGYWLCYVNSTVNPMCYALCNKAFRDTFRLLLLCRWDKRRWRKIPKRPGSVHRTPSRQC
How it was run: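 Male Wistar rat cortex membranes in 20 mM Hepes pH 7.4 were incubated with 1.0 nM (final) [3H]pirenzepine for 60 min at 20° C; nonspecific binding was defined with 1 μg/mL atropine. Filtration and scintillation counting were used, and IC50 was calculated from a single concentration assuming mass-action kinetics.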

[2] = molecular target: muscarinic acetylcholine receptors; assay: inhibition of specific binding of ^3 H-Oxotremorine-M (^3 H-Oxo); design: species or system rat (male Wistar; conditions: ^3 H-Oxotremorine 1.0 nM, rat cortex, 30 min. at 25° C.
How it was run: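 Rat cortex membranes (male Wistar) in 20 mM Hepes pH 7.4 incubated with 1.0 nM ^3H-Oxotremorine-M (final) and test compound for 30 min at 25 °C; arecoline defines non-specific binding. Bound radioactivity by filtration and scintillation counting; IC50 (nM) from a single concentration via Co/Cx mass-action formula, reflecting high- and medium-affinity sites.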

[3] = ^3 HPRZ 1.0 nM, rat cortex, 60 min. at 20° C., read-out: ^3 HPRZ IC50 (head from b208 on: Pir IC-50)

| IC50 [2] [nM] | IC50 [1, 3] [nM] | SMILES | IC50 [1] [nM] |
| --- | --- | --- | --- |
| 123 | 370 | CCCCOc1nsnc1OC1CCNC1 (racemic) [Compound 27, (±)-3-Butyloxy-4-(3-pyrrolidinyloxy)-1,2,5-thiadiazole] | – |
| 69 | 19 | CCCCSc1nsnc1OC1CCN(C)CC1 [Compound 30, 3-Butylthio-4-(1-methyl-4-piperidyloxy)-1,2,5-thiadiazole] | – |
| 1.9 | 0.55 | c1ccc(CCCSc2nsnc2O[C@H]2CN3CCC[C@@H]2C3)cc1 (relative stereo) [Compound 72, (±)3-(3-Phenylpropylthio)-4-[endo-6-(1-azabicyclo[3.2.1].cent.octyloxy)]-1,2,5-thiadiazole] | – |
| 3.7 | 10 | COc1ccc(CCCOc2nsnc2O[C@@H]2CN3CCC[C@H]2C3)cc1 (relative stereo) [Compound 193, (±)-endo-3-[3-(4-Methoxyphenyl)propoxy]-4-(1-azabicyclo[3.2.1]octyl-6-oxy)-1,2,5-thiadiazole] | – |
| 5.2 | 8.8 | FC(F)(F)Oc1ccc(COc2nsnc2O[C@@H]2CN3CCC[C@H]2C3)cc1 (relative stereo) [Compound 196, (±)-endo-3-[4-(Trifluoromethoxy)benzyloxy]-4-(1-azabicyclo[3.2.1]octyl-6-oxy)-1,2,5-thiadiazole] | – |
| 1.8 | 1.9 | N#Cc1ccc(CSc2nsnc2O[C@H]2CN3CCC[C@@H]2C3)cc1 (relative stereo) [Compound 49, (±)-endo-3-(4-Cyanobenzylthio)-4-(1-azabicyclo[3.2.1]octyl-6-oxy)-1,2,5-thiadiazole] | – |
| 1 | 1.4 | c1csc(COc2nsnc2O[C@@H]2CN3CCC[C@H]2C3)c1 (relative stereo) [Compound 173, (±)-endo-3-(2-Thienylmethoxy)-4-(1-azabicyclo[3.2.1]octyl-6-oxy)-1,2,5-thiadiazole] | – |
| 230 | 145 | O=C1CCCn2cccc21 [Compound 139, 1-azabicyclo[4.3.0]nona-6,8-diene-5-one] | – |
| 86 | 10 | CCCCSc1nsnc1OCCN(CC)CC [Compound 34, 3-Butylthio-4-(2-(diethylamino)ethoxy)-1,2,5-thiadiazole] | – |
| > 1000 | 475 | CCCCOc1nsnc1O[C@@H]1CCC[C@H]1N(C)C (racemic) [Compound 52, (±)-trans-3-Butyloxy-4-(2-dimethylaminocyclopentyloxy)-1,2,5-thiadiazole] | – |
| 1.3 | 3 | CCC#CCCOc1nsnc1O[C@@H]1CN2CCC[C@H]1C2 (relative stereo) [Compound 176, (±)-endo-3-(3-Hexynyloxy)-4-(1-azabicyclo[3.2.1]octyl-6-oxy)-1,2,5-thiadiazole] | – |
| 2.1 | 12 | C1=CC(Oc2nsnc2OC2CN3CCCC2C3)CCC1 (mixture of isomers) [Compound 174, (±)-endo-3-(2-Cyclohexenyloxy)-4-(1-azabicyclo[3.2.1]octyl-6-oxy)-1,2,5-thiadiazole] | – |
| 25 | 112 | CCCCSc1nsnc1OC1CNC1 [Compound 51, 3-Butylthio-4-(3-azetidinyloxy)-1,2,5-thiadiazole] | – |
| 1.1 | 2.2 | C/C=C\COc1nsnc1O[C@@H]1CN2CCC[C@H]1C2 (relative stereo) [Compound 181, (±)-endo-3-(cis-2-Butenyloxy)-4-(1-azabicyclo[3.2.1]octyl-6-oxy)-1,2,5-thiadiazole] | – |
| 15 | 61 | c1ccc2cc(CCOc3nsnc3O[C@@H]3CN4CCC[C@H]3C4)ccc2c1 (relative stereo) [Compound 178, (±)-endo-3-[2-(2-Napthyl)ethoxy]-4-(1-azabicyclo[3.2.1]octyl-6-oxy)-1,2,5-thiadiazole] | – |

Further lines, the compound ahead of its results:

| SMILES | IC50 [2] [nM] | IC50 [1, 3] [nM] | IC50 [1] [nM] |
| --- | --- | --- | --- |
| Cl/C=C/COc1nsnc1OC1CN2CCC1CC2 (mixture of isomers) [Compound 120, (±)-3-(trans-3-chloro-2-propenyloxy)-4-(1-azabicyclo[2.2.2]octyl-3-oxy)-1,2,5-thiadiazole] | 11 | – | 71 |
| CCCCSc1nsnc1OCC1CN2CCC1CC2 (racemic) [Compound 22, (±)-3-Butylthio-4-((1-azabicyclo[2.2.2]octan-3-yl)-methoxy)-1,2,5-thiadiazole] | 23 | – | 7.4 |
| c1ccc(OCCSc2nsnc2OC2CN3CCC2CC3)cc1 (racemic) [Compound 44, (±)-3-(2-Phenyloxyethylthio)-4-(1-azabicyclo[2.2.2]octyl-3-oxy)-1,2,5-thiadiazole] | 7.1 | – | 15 |
| CCCCNc1nsnc1OC1CN2CCC1CC2 (racemic) [Compound 75, 3-(1-Butylamino)-4-[(+,-)-3-(azabicyclo[2.2.2]octyloxy)]-1,2,5-thiadiazole] | 65 | 128 | – |
| COCCOc1nsnc1OC1CN2CCC1CC2 (racemic) [Compound 111, (±)-3-(2-Methoxyethoxy)-4-(1-azabicyclo[2.2.2]octyl-3-oxy)-1,2,5-thiadiazole] | 38 | – | 85 |
| CCCCOc1nsnc1OC1CC2CCC(C1)N2C (stereo not shown) [Compound 45] | 29 | – | 4.6 |
| Brc1ccc(OCCOc2nsnc2OC2CN3CCC2CC3)cc1 (racemic) [Compound 128, (±)-3-(2-[4-Bromophenoxy]ethoxy)-4-(1-azabicyclo[2.2.2]octyl-3-oxy)-1,2,5-thiadiazole] | 6.9 | 109 | – |
| Clc1ccc(OCCOc2nsnc2OC2CN3CCC2CC3)cc1 (racemic) [Compound 118, (±)-3-(2-[4-Chlorophenoxy]ethoxy)-4-(1-azabicyclo[2.2.2]octyl-3-oxy)-1,2,5-thiadiazole] | 7.2 | – | 70 |
| CC(C)CCCSc1nsnc1OC1CN2CCC1CC2 (racemic) [Compound 39, (±)-3-(4-Methylpentylthio)-4-(1-azabicyclo[2.2.2]octyl-3-oxy)-1,2,5-thiadiazole] | 13 | – | 15 |
| C(CC1CC1)Oc1nsnc1OC1CN2CCC1CC2 (racemic) [Compound 114, (±)-3-(2-Cyclopropylethoxy)-4-(1-azabicyclo[2.2.2]octyl-3-oxy)-1,2,5-thiadiazole] | 9.3 | – | 43 |
| Fc1ccc(OCCOc2nsnc2OC2CN3CCC2CC3)cc1 (racemic) [Compound 121, (±)-3-(2-[4-Fluorophenoxy]ethoxy)-4-(1-azabicyclo[2.2.2]octyl-3-oxy)-1,2,5-thiadiazole] | 12 | 146 | – |
| c1cncc(CCCSc2nsnc2OC2CN3CCC2CC3)c1 (racemic) [Compound 155, (±)-3-(3-[3-pyridyl]propylthio)-4-(1-azabicyclo[2.2.2]octyl-3-oxy)-1,2,5-thiadiazole] | 3.4 | – | 8.8 |
| CCCS(=O)(=O)c1nsnc1OC1CN2CCC1CC2 (racemic) [Compound 103, (±)-3-propylsulfonyl-4-(1-azabicyclo[2.2.2]octyl-3-oxy)-1,2,5-thiadiazole] | 107 | 115 | – |
| c1csc(-c2ccc(SCCSc3nsnc3OC3CN4CCC3CC4)s2)c1 (racemic) [Compound 59, (±)-3-(2-(2-(5-(2-Thienyl)thienyl)thio)ethylthio)-4-(1-azabicyclo[2.2.2]octyl-3-oxy)-1,2,5-thiadiazole] | 104 | 102 | – |
